Results on 2 compounds are retold here after patent US20250145570A1, “DHODH INHIBITOR POLYMORPH” (Aslan Pharmaceuticals Pte Ltd, priority 2022, published 2025).

Entries after “also recorded” stand apart in the source; their conditions may differ. Read-outs that look alike come from different tables or passages of the source.

What all share (type): physicochemical
The nature of data set [1]: Approximate solubility by manual dilution combined with visual observation. Particulars: thermodynamic from solid. On the procedure:
The approximate solubility was tested at room temperature by manual dilution combined with visual observation. The solubility of material in different single and mixed solvents was determined at the concentration once no particles of farudodstat could be visually observed in solvents.

The nature of data set [2]: Form stability of DSP polymorph after processing/recrystallisation (XRPD, DSC, TGA). On the procedure:
The farudodstat DSP polymorph was characterized using X-ray powder diffraction (XRPD), differential scanning calorimetry (DSC), thermogravimetric analysis, (TGA) and polarized light microscopy (PLM). Then it was subjected to various recrystallisation and analysis to confirm it was a DSP polymorph.
The suspensions of the DSP polymorph were prepared in different single solvents and mixed solvents (see Table 4 below). After this the samples were kept shaking for 72 hrs at 25° C. and 50° C. before they were centrifuged at 14,000 rpm for 10 mins until solid material was separated from the supernatant. The centrifuged samples were investigated by XRPD. The samples were dried under vacuum conditions at 40° overnight and investigated by XRPD, DSC and TGA if new XRPD patterns were found.
The farudodstat DSP polymorph was subject to processing or treated to test the physical stability of the form.
50 mg of the DSP polymorph was dissolved in the selected solvents (see Table 4) according to the solubility results to form saturated solutions. Next, the anti-solvent was slowly added into the solution under stirring until the precipitation formed. If there was no solid precipitation at room temperature, the sample was transferred into the freezer and stored at −20° C. After this, the slurries were stirred for 24 hours before they were centrifuged at 14,000 rpm for 10 mins, until solid material was separated from the supernatant. The centrifuged samples were investigated by XRPD. The samples were next dried under vacuum conditions at 40° C. overnight. If crystalline XRPD patterns were found, the samples were further investigated by XRPD, DSC and TGA.
Due to the high solubility of the DSP polymorph in some solvents (see Table 4), these solvents were chosen for the evaporation test. The solutions were prepared according to the solubility of the compound and were kept open at room temperature to let the solvents evaporate to form crystals. After evaporation was complete, the dried solids were collected and investigated by XRPD. Further tests were performed on DSC and TGA if new XRPD patterns were found.
10-30 mg of the original form of ASLAN003 was loaded into glass vials and placed in a thermomixer at either 60° C. or 50° C. After this, the selected solvents (see Table 4) were slowly added to the samples until the compound was completely dissolved. Next, the samples were transferred into the Crystal 16 crystallizer and the cooled to 0° C. at a rate of 0.5° C./min, before they were held at 0° C. for 24 hrs. If there was no solid precipitation at 0° C., the sample was transferred into a freezer at −20° C. […]
Two samples from Example 4: • 1. […] THF with water by antisolvent were further characterized after drying under vacuum conditions at 40° C. overnight and evaluated.

Data set [3] in a line: Polymorph screening experiments (XRPD of returned solids). Particulars: conclusion of screening experiments. The method, then: A solvent solubility screen was carried out on the farudodstat DSP polymorph (also referred to as CS-276-22 in the following examples) to determine its solubility in various solvents, and to gain an initial assessment of the polymorphic landscape. To ˜20 mg samples of predominantly amorphous farudodstat, aliquots (2×50 μL and then 100 μL) of the chosen solvents were added until dissolution was observed, or 2 mL had been added. The samples were manually agitated and heated to ˜40° C. in a block attached to a water bath in between each aliquot Clear solutions were uncapped and allowed to evaporate at room temperature. Any solids obtained from slurries and from evaporation were analysed by X-ray powder diffraction (XRPD).
16×20 mg of the farudodstat DSP polymorph sample was weighed into 2 mL bead mill vials and was milled for 1.5 hrs for amorphization. Next, 5 μL of appropriate solvents (see Table 6) were added to each sample. The samples were then bead milled using the following procedure: • 1. 2 stainless steel beads were added to each vial. • 2. 4500 rpm • 3. 10×90 s cycles • 4. 10 s hold between each cycle • 5. Repeated 4× to give 1 hr milling time
16×20 mg of farudodstat sample was first weighed into 2 mL bead mill vials and was milled to prepare amorphous material. To all the […] bead milled samples, appropriate solvents (see Table 6) were added in 100 μL aliquots until a mobile slurry was obtained without any dissolution observed. Between additions, the samples were stirred at 40° C. Samples were then stirred, and temperature cycled between 5-40° C. (0.1° C./min heating/cooling rate, 1 hour hold at each temperature) for ˜72 hours.
After 48 hours, samples were checked. If necessary, additional solids added. Non-mobile solid in solution samples were agitated using a spatula until a mobile slurry was obtained. Slurries were isolated by centrifugation ([…] nylon filters) and the solids analysed by XRPD. Post XRPD analysis, the XRPD plate was dried at 40° C. under vacuum for 48 hours and the solids reanalysed by XRPD to give an indication of form stability.
The saturate isolated from the previous thermal cycling experiment was left to evaporate at room temperature. Any solids returned from evaporation were analysed by XRPD.
16×20 mg of farudodstat sample was weighed into 2 mL bead mill vials and then milled to prepare amorphous material. To the bead milled sample, appropriate solvent was added in 100 μL aliquots until a mobile slurry was obtained without any dissolution observed. Between additions, the samples were stirred at 50° C. and 100° C. depending upon the boiling point of the solvent to dissolve the API in the solvent system. Samples were checked and slurries were isolated by centrifugation ([…] Nylon filters) and the saturates were put in an HPLC vials. Next, the vials were uncapped and were left to evaporate at 50° C. using a water bath. Finally, after the complete evaporation of solvent, the remaining solid were analysed by XRPD to check for appearance of any new patterns.
20 mg×5 of farudodstat sample was weighed into 2 ml bead mill vials and milled to prepare amorphous material. To the bead milled sample, appropriate solvent was added in 100 μL aliquots until a mobile slurry was obtained without any dissolution observed. Between additions, the samples were stirred at 100° C. to dissolve the API in the solvent system. Samples were checked and slurries were isolated by centrifugation (0.22 μm Nylon filters) and the saturates were put in an HPLC vials. The vials were then uncapped and were left to evaporate at 100° C. using a sand bath. After the complete evaporation of solvent, the remaining solid were analysed by XRPD to check for appearance of any new patterns.
20 mg×16 farudodstat sample was weighed into 2 ml bead mill vials and milled to prepare amorphous material. The appropriate solvent was added in 100 μL aliquots until a mobile slurry was obtained without any dissolution observed. […]

Data set [4] in a line: Characterisation of new polymorphs: XRPD before and after drying/grinding. On the procedure:
500 μL 1,1,1.3.3.3-Hexafluoro-2-Propanol was added to 20 mg of amorphous farudodstat DSP polymorph in a 1.5 mL of HPLC vial equipped with a magnetic stirring bar, resulting in formation of a mobile slurry. The slurry was isothermally stirred for 2 weeks at 40° C. An additional 20 mg of material was added to the slurry as it became a clear solution after one week. Solids were isolated by centrifugation using a […] Nylon filter, and were analysed without any further drying by XRPD, TGA and 1H NMR (proton nuclear magnetic resonance). Finally, the samples were dried at 40° C. for 4 hrs and then reanalysed by XRPD.
350 μL of N-Methylpyrrolidone (NMP) was added to 20 mg of amorphous farudodstat DSP polymorph in a 1.5 mL HPLC vial equipped with a magnetic stirring bar to prepare a mobile slurry. The resulting slurry was thermally cycled for 3 days between 5-40° C. (Ramp rate: 0.1° C./min with isothermal holds of 1 hour at 40° C. and 5° C.). The saturated solution was then evaporated at 100° C., before the solids were analysed by XRPD.

For orientation: solubility means the concentration that dissolves in the medium under given conditions.

For the compound `COc1cccc(-c2cc(F)c(Nc3ncccc3C(=O)O)c(F)c2)c1` [farudodstat DSP polymorph, 2-(3,5-difluoro-3′methoxybiphenyl-4-ylamino)nicotinic acid], the solubility in data set [1] (11 organic solvents/mixed solvents, organic solvent or mixture, read-out: relatively poor solubility) was less than 10000 µg/mL; in data set [1] (organic solvent or mixture, Acetone:Dichloromethane (1:1), room temperature, read-out: Solubility) it was less than 1580 µg/mL; in data set [1] (organic solvent or mixture, Acetone:Dichloromethane (3:1), room temperature, read-out: Solubility) it was less than 1900 µg/mL; in data set [1] (organic solvent or mixture, CHCl3, room temperature, read-out: Solubility), less than 570 µg/mL; in data set [1] (organic solvent or mixture, Cyclohexane, room temperature, read-out: Solubility) it was less than 490 µg/mL; in data set [1] (organic solvent or mixture, Dichloromethane, room temperature, read-out: Solubility), less than 600 µg/mL. In addition, the solubility is less than 810 µg/mL in data set [1] (organic solvent or mixture, Heptane, room temperature, read-out: Solubility); less than 1510 µg/mL in data set [1] (organic solvent or mixture, THF-Heptane (1:1), room temperature, read-out: Solubility); less than 530 µg/mL in data set [1] (organic solvent or mixture, Toluene, room temperature, read-out: Solubility); more than 100000 µg/mL in data set [1] (organic solvent or mixture, some solvents, room temperature, read-out: High solubility); less than 530 µg/mL in data set [1] (Water, room temperature, read-out: Solubility). In addition, the “Weight loss on heating” value in data set [2] (after heating to 200° C.) was “minimum weight loss”. Moreover, the “Form found in screening experiments” value in data set [2] (all experiments of Table 4 (anti-solvent, grinding, crystallization, drying, milling, heating/cooling, slurry, evaporation)) is “predominant form”. Further, in data set [2] (recrystallized from a number of solvents), the Stability on recrystallisation result is “stable and reproducible”. Besides, in data set [2] (samples from THF evaporation and THF-water antisolvent, dried under vacuum at 40° C. overnight), the Polymorph stability result is “stable”. Moreover, in data set [3], the “Overall stability of polymorph” value is “highly stable; also recorded: high stability”.
For the compound `COc1cccc(-c2cc(F)c(Nc3ncccc3C(=O)O)c(F)c2)c1` [NMP polymorph], the “Stability of polymorphic form” value in data set [4] is “unstable/metastable”. The Form after drying result in data set [4] (drying at 40° C. for 4 hours) was “conversion of Pattern 3 back to Pattern 1”. Further, the “XRPD after gentle grinding” value in data set [4] (gentle grinding) is “did not change the pattern observed”.
